Measurements published in patent US4110438A, “Method of treating depression” (American Home Products Corporation, priority 1977, dated 1978).

Assays:
[1] = test system: patients with endogenous depression; details: given in randomized order on days 1, 3 and 5; Lancet 1974; cited from earlier work
[2] = test system: patients suffering from depression caused by stress or emotional exhaustion; experiment: clinical investigation of LH-RH in patients suffering from depression; format: in vivo, human
Experimental: Twenty-one patients, suffering from depression caused by stress or emotional exhaustion, were selected for the investigation. Fifteen were female adults, five were male adults and one patient was a young person […]. The latter patient suffered from existential depression and cryptorchidism. Each patient received 300 mcg of LH-RH in a single or divided dose once a month. In this instance the LH-RH was in the form of its hydrochloride acid addition salt and was prepared according to the syntheses reported by Immer et al., noted above. […] Relief from depression usually was observed within 12 hours and in almost all cases within 24 hours. The patients became more cheerful and aware of feeling much better. […] This latter patient sufferred from depression and sexual frigidity; however, in this instance there was no anhedonia regression and some erotic pulsations did occur. […] The greatest hormonal responses coincided with the most evident clinical improvement. In a control study, five patients with established depression were treated with an injection of only the vehicle for the above noted LH-RH dosage.

SMILES | clinical importance in the treatment of endogenous depression [1] | sleep, appetite and disposition for work ([2]; 21 patients, 300 mcg once a month) | time to relief from depression (almost all cases) ([2]; 21 patients, 300 mcg once a month, in almost all cases) | libido response ([2]; 21 patients, 300 mcg once a month, most noticeable in female patients) | time to relief from depression (usually) ([2]; 21 patients, 300 mcg once a month, usually observed) | onset of response after administration ([2]; 21 patients, 300 mcg single or divided dose once a month, hydrochloride salt) | time until symptoms of depression disappear ([2]; 100-800 mcg LH-RH or acid addition salt, moderately to severely depressed patient, usually) | results in stress induced (reactive) depression ([2]; dosages 100-800 mcg, patients suffering from stress induced depression) | hormonal responses: serum levels of luteinizing hormone, follicular stimulating hormone, prolactin and thyrotrophin releasing hormone ([2]; monitored during treatment, greatest responses coincided with most evident clinical improvement) | patients not responding ([2]; of 21 patients, 300 mcg once a month) | gonadotropin response in younger patients (growth of penis, development of scrota) ([2]; younger patients, measured at 30 and 60 days after beginning of treatment)
CC(C)C[C@H](NC(=O)CNC(=O)[C@H](Cc1ccc(O)cc1)NC(=O)[C@H](CO)NC(=O)[C@H](Cc1c[nH]c2ccccc12)NC(=O)[C@H](Cc1c[nH]cn1)NC(=O)[C@@H]1CCC(=O)N1)C(=O)N[C@@H](CCCNC(=N)N)C(=O)N1CCC[C@H]1C(=O)NCC(N)=O [LH-RH, (pyro)-Glu-His-Trp-Ser-Tyr-Gly-Leu-Arg-Pro-Gly-NH2] | of no clinical importance | Sleep and appetite were regularized as well as disposition for work | ≤ 24 h | An improvement in libido response occurred frequently | ≤ 12 h | response was immediate | ≤ 24 h | Especially effective and favorable results | increases in the serum levels | Only one patient did not respond | there was a gonadotropin response
NC(=O)[C@@H]1CCCN1C(=O)[C@H](Cc1cnc[nH]1)NC(=O)[C@@H]1CCC(=O)N1 [thyrotropin releasing hormone] | of no clinical importance |  |  |  |  |  |  |  |  |  | 
